Results from patent publication US8487102B2, “Pyrrazolopyridine compounds as dual NK1/NK3 receptor antagonists” (Hoffmann-La Roche Inc., priority 2010, dated 2013).
pKi: −log10 of the molar value.

Assays:
[1] = molecular target: T1, Recombinant human NK3 (hNK3) receptor (Homo sapiens, UniProt P29371); experiment: NK3 receptor binding assay, [3H]SR142801 displacement; settings: hNK3 receptor membranes, [3H]SR142801 0.3 nM
T1 construct: expressed in transfected cells; membrane preparations of the recombinant receptor
T1 sequence (P29371 1-465): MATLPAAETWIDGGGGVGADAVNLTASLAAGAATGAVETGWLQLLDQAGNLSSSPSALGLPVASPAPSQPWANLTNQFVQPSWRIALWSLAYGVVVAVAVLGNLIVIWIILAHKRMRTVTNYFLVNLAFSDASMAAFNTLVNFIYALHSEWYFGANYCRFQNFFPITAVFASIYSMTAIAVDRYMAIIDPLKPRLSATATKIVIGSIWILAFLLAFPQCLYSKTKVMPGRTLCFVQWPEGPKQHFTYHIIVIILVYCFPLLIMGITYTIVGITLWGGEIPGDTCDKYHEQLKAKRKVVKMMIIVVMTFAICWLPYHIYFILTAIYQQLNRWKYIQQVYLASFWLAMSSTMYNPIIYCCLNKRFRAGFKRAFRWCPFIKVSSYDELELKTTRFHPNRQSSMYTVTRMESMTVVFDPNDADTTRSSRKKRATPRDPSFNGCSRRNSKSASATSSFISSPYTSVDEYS
Experimental: Recombinant human NK3 (hNK3) receptor affinity was determined in a 96 well plate assay, using [^3H]SR142801 (final concentration 0.3 nM) to radiolabel the hNK3 receptor in the presence of 10 concentrations of competing compound or buffer. Non specific binding was determined using 10 μM SB222200. Assay buffer consisted of Tris-HCl (50 mM, pH 7.4), BSA (0.1%), MnCl2 (4 mM) and phosphoramidon (1 μM). Membrane preparations of hNK3 receptors (approximately 2.5 μg/well in a 96 well plate) were used to initiate the incubation for 90 min at room temperature. This assay was terminated by rapid filtration under vacuum through GF/C filters, presoaked for 90 min with PEI (0.3%), with 3×0.5 ml washes of ice-cold Tris buffer (50 mM, pH 7.4) containing 0.1% BSA. The radioactivity retained on the filters was measured by scintillation counting. All assays were performed in duplicate in at least two separate experiments.

human NK1 receptor = molecular target: T2, human NK1 receptor (Homo sapiens, UniProt P25103); experiment: NK1 receptor binding assay, [3H]substance P displacement; settings: human NK1 receptors in CHO cells, [3H]substance P 0.6 nM
T2 construct: expressed in transfected cells; host or cells: CHO cells (Semliki virus expression system), membrane suspension
T2 sequence (P25103 whole entry): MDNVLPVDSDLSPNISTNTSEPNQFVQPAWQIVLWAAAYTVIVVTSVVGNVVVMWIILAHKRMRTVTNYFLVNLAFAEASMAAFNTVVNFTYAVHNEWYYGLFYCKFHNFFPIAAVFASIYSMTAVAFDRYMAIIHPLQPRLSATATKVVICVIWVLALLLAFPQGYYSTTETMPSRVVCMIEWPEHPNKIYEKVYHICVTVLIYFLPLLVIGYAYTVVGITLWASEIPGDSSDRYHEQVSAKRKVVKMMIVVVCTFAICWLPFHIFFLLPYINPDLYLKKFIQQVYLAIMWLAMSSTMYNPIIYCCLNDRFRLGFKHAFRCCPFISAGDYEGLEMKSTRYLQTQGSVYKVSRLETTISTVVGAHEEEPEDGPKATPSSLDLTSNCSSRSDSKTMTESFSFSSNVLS

[2] = phase II trial, cited from earlier work

| SMILES | pKi [1] | pKi (human NK1 receptor) | activity on positive symptoms of schizophrenia ([2]; altered behaviour, delusion, hallucinations, extreme emotions, excited motor activity, incoherent speech) | activity in the treatment of negative symptoms of schizophrenia ([2]; depression, anhedonia, social isolation or memory and attention deficits) |
| --- | --- | --- | --- | --- |
| CCn1ncc2c(-c3cscc3C)c(N(C)C(=O)C(C)(C)c3cc(C(F)(F)F)cc(C(F)(F)F)c3)cnc21 [Example 21, 2-(3,5-Bis-trifluoromethyl-phenyl)-N-[1-ethyl-4-(4-methyl-thiophen-3-yl)-1H-pyrazolo[3,4-b]pyridin-5-yl]-N-methyl-isobutyramide] | 8.92 | 7.04 | – | – |
| CCn1ncc2c(-c3cc(CO)ccc3Cl)c(N(C)C(=O)C(C)(C)c3cc(C(F)(F)F)cc(C(F)(F)F)c3)cnc21 [Example 22, 2-(3,5-Bis-trifluoromethyl-phenyl)-N-[4-(2-chloro-5-hydroxymethyl-phenyl)-1-ethyl-1H-pyrazolo[3,4-b]pyridin-5-yl]-N-methyl-isobutyramide] | 8.32 | 8.60 | – | – |
| CCn1ncc2c(-c3ccc(C#N)cc3)c(N(C)C(=O)C(C)(C)c3cc(C(F)(F)F)cc(C(F)(F)F)c3)cnc21 [Example 23, 2-(3,5-Bis-trifluoromethyl-phenyl)-N-[4-(4-cyano-phenyl)-1-ethyl-1H-pyrazolo[3,4-b]pyridin-5-yl]-N-methyl-isobutyramide] | 6.01 | 8.31 | – | – |
| CCn1ncc2c(-c3ccsc3Cl)c(N(C)C(=O)C(C)(C)c3cc(C(F)(F)F)cc(C(F)(F)F)c3)cnc21 [Example 24, 2-(3,5-Bis-trifluoromethyl-phenyl)-N-[4-(2-chloro-thiophen-3-yl)-1-ethyl-1H-pyrazolo[3,4-b]pyridin-5-yl]-N-methyl-isobutyramide] | 9.15 | 7.44 | – | – |
| CCn1ncc2c(-c3ccc(F)cc3C)c(N(C)C(=O)C(C)(C)c3cc(F)cc(C(F)(F)F)c3)cnc21 [Example 26, 2-(3-fluoro-5-trifloromethyl-phenyl)-N-[1-ethyl-4-(4-fluoro-2-methyl-phenyl)-1H-pyrazolo[3,4-b]pyridin-5-yl]-N-methyl-isobutyramide] | 7.03 | 8.38 | – | – |
| CCn1ncc2c(-c3ccc(F)cc3C)c(N(C)C(=O)C(C)(C)c3cc(Cl)cc(Cl)c3)cnc21 [Example 27, 2-(3,5-Dichloro-phenyl)-N-[1-ethyl-4-(4-fluoro-2-methyl-phenyl)-1H-pyrazolo[3,4-b]pyridin-5-yl]-N-methyl-isobutyramide] | 7.45 | 8.59 | – | – |
| Cc1cc(F)ccc1-c1c(N(C)C(=O)C(C)(C)c2cc(C(F)(F)F)cc(C(F)(F)F)c2)cnc2[nH]ncc12 [Example 28, 2-(3,5-Bis-trifluoromethyl-phenyl)-N-[4-(4-fluoro-2-methyl-phenyl)-1H-pyrazolo[3,4-b]pyridin-5-yl]-N-methyl-isobutyramide] | 7.56 | 8.80 | – | – |
| CCn1ncc2c(-c3ccc(F)cc3C)c(N(C)C(=O)C(C)(C)c3cccc(Cl)c3)cnc21 [Example 29, 2-(3-Chloro-phenyl)-N-[1-ethyl-4-(4-fluoro-2-methyl-phenyl)-1H-pyrazolo[3,4-b]pyridin-5-yl]-N-methyl-isobutyramide] | 6.51 | 7.46 | – | – |
| CCn1ncc2c(-c3ccc(F)cc3C)c(N(C)C(=O)C(C)(C)c3cccc(C(F)(F)F)c3)cnc21 [Example 30, N-[1-Ethyl-4-(4-fluoro-2-methyl-phenyl)-1H-pyrazolo[3,4-b]pyridin-5-yl]-N-methyl-2-(3-trifluoromethyl-phenyl)-isobutyramide] | 6.06 | 7.91 | – | – |
| CC(=O)n1ncc2c(-c3ccc(F)cc3C)c(N(C)C(=O)C(C)(C)c3cc(C(F)(F)F)cc(C(F)(F)F)c3)cnc21 [Example 31, N-[1-Acetyl-4-(4-fluoro-2-methyl-phenyl)-1H-pyrazolo[3,4-b]pyridin-5-yl]-2-(3,5-bis-trifluoromethyl-phenyl)-N-methyl-isobutyramide] | 7.89 | 8.92 | – | – |
| COCC(=O)n1ncc2c(-c3ccc(F)cc3C)c(N(C)C(=O)C(C)(C)c3cc(C(F)(F)F)cc(C(F)(F)F)c3)cnc21 [Example 32, 2-(3,5-Bis-trifluoromethyl-phenyl)-N-[4-(4-fluoro-2-methyl-phenyl)-1-(2-methoxy-acetyl)-1H-pyrazolo[3,4-b]pyridin-5-yl]-N-methyl-isobutyramide] | 7.55 | 8.72 | – | – |
| Cc1cc(F)ccc1-c1c(N(C)C(=O)C(C)(C)c2cc(C(F)(F)F)cc(C(F)(F)F)c2)cnc2c1cnn2C(=O)C1CC1 [Example 33, 2-(3,5-Bis-trifluoromethyl-phenyl)-N-[1-cyclopropanecarbonyl-4-(4-fluoro-2-methyl-phenyl)-1H-pyrazolo[3,4-b]pyridin-5-yl]-N-methyl-isobutyramide] | 8.00 | 8.80 | – | – |
| Cc1cc(F)ccc1-c1c(N(C)C(=O)C(C)(C)c2cc(C(F)(F)F)cc(C(F)(F)F)c2)cnc2c1cnn2S(C)(=O)=O [Example 36, 2-(3,5-Bis-trifluoromethyl-phenyl)-N-[4-(4-fluoro-2-methyl-phenyl)-1-methanesulfonyl-1H-pyrazolo[3,4-b]pyridin-5-yl]-N-methyl-isobutyramide] | 7.82 | 9.22 | – | – |
| Cc1cc(F)ccc1-c1c(N(C)C(=O)C(C)(C)c2cc(C(F)(F)F)cc(C(F)(F)F)c2)cnc2c1cnn2S(=O)(=O)N(C)C [Example 37, 2-(3,5-Bis-trifluoromethyl-phenyl)-N-[1-dimethylsulfamoyl-4-(4-fluoro-2-methyl-phenyl)-1H-pyrazolo[3,4-b]pyridin-5-yl]-N-methyl-isobutyramide] | 7.11 | 8.12 | – | – |
| Cc1cc(F)ccc1-c1c(N(C)C(=O)C(C)(C)c2cc(C(F)(F)F)cc(C(F)(F)F)c2)cnc2c1cnn2CS(C)(=O)=O [Example 38, 2-(3,5-Bis-trifluoromethyl-phenyl)-N-[4-(4-fluoro-2-methyl-phenyl)-1-methanesulfonylmethyl-1H-pyrazolo[3,4-b]pyridin-5-yl]-N-methyl-isobutyramide] | 8.10 | 8.96 | – | – |
| CC(=O)N(C)C1(c2ccccc2)CCN(CCC[C@]2(c3ccc(Cl)c(Cl)c3)CCCN(C(=O)c3ccccc3)C2)CC1 [SR 142,801, Osanetant] | – | – | active | inactive |
